According to US9394555B2, “Compositions comprising a polypeptide having cellulolytic enhancing activity and a dioxy compound and uses thereof” (priority 2010, dated 2016):

Columns and labels:
[1] = target: Trichoderma reesei GH61B polypeptide (Trichoderma reesei, UniProt Q7Z9M7); assay: Variable pH PASC conversion assay (Examples 29, 30) with Trichoderma reesei GH61B polypeptide; type: biochemical; details: gallic acid 0.2% w/w + Trichoderma reesei GH61B polypeptide (10 mg/g) + beta-glucosidase (10 mg/g), 72 hours, 50° C.
Chain of Trichoderma reesei GH61B polypeptide (Q7Z9M7 20-249): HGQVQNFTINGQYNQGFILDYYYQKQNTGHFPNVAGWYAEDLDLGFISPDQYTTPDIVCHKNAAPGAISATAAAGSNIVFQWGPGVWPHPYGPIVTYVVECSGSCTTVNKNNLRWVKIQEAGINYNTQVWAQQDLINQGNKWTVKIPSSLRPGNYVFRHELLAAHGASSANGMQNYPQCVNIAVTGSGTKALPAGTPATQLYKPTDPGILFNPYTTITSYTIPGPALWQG

[2] = tested on: T. terrestris GH61E polypeptide; assay: Microcrystalline cellulose conversion assay I (Examples 8, 9) with T. terrestris GH61E polypeptide; type: biochemical, Thielavia terrestris; details: dioxy compound 0.3% w/w + T. terrestris GH61E polypeptide (10 mg/g) + endoglucanase II + beta-glucosidase (5 mg/g each), 96 hours
Protocol: A 5% microcrystalline cellulose slurry was prepared by addition of 2.5 g of AVICEL®PH101 (Sigma-Aldrich, St. Louis, Mo., USA) to a graduated 50 ml screw-cap conical tube followed by 15 ml of 1 M sodium acetate pH 5 and 1 ml of 100 mM MnSO4 and approximately 20 ml of deionizer water. Each conical tube was then mixed thoroughly by shaking/vortexing, and adjusted to 50 ml total with deionized water and mixed again. Contents of the tube were then quickly transferred to a 100 ml beaker and stirred rapidly with a magnetic stirrer. Five hundred μl aliquots of the 5% AVICEL® slurry were pipetted into wells of a 2.0 ml 96-deepwell plate (Axygen, Union City, Calif., USA) using a 1000 μl micropipette with a wide aperture tip (end of tip cut off about 2 mm from the base). Three hundred μl of either deionized water or a 1% dioxy compound solution (dissolved in deionized water) was added to each well.
The dioxy compounds assayed include caffeic acid (Sigma-Aldrich, St. Louis, Mo., USA), dichlorophenolindophenol (DCPIP; Sigma-Aldrich, St. Louis, Mo., USA), ethyl gallate (Sigma-Aldrich, St. Louis, Mo., USA), gallic acid (Sigma-Aldrich, St. Louis, Mo., USA), 3,4-dihydroxybenzoic acid (Sigma-Aldrich, St. Louis, Mo., USA), pyrocatechol (Sigma-Aldrich, St. Louis, Mo., USA), pyrogallol (Sigma-Aldrich, St. Louis, Mo., USA), sinapinic acid (3,5 dimethoxy-4-hydroxy cinnamic acid; Apin Chemicals LTD, Abingdon, UK), and tannic acid (Sigma-Aldrich, St. Louis, Mo., USA).
Enzyme mixtures were prepared and then added simultaneously to all wells in a volume of 200 μl, for a total of 1 ml in each reaction. […] All experiments reported were performed in triplicate.
After approximately 4 days, the deep-well plate was removed from the incubator and chilled overnight to 4° C. The plate was then mixed well by inversion and briefly centrifuged at 52×g in a SORVALL® RT7 centrifuge (Thermo Fisher Scientific, Waltham, Mass., USA) for 10 seconds. Samples were then mixed by pipetting, and 200 μl from each well were transferred to a MULTISCREEN® HV centrifuge filter plate assembly (Millipore, Bedford, Mass., USA). The centrifuge filter plate assembly was centrifuged at 2000 rpm in a SORVALL® RT7 centrifuge for 20 minutes. […] Sugars were detected using a refractive index detector (Agilent Technologies, Inc., Santa Clara, Calif., USA) with quantification by integration compared to purified sugar standards.
(§1) In this assay only glucose was measured since beta-glucosidase was at high levels in all samples but the controls.
(§2) A limit digest was performed to determine the total concentration accessible glucose equivalents using 100 mg of T. reesei cellulase (CELLIC™ CTec, Novozymes A/S, Bagsvaerd, Denmark) per gram cellulose, Triplicate data points were averaged and standard deviation was calculated.

[3] = target: T1, T. aurantiacus GH61A polypeptide (Thermoascus aurantiacus, UniProt G3XAP7, N13Y); assay: Phosphoric acid swollen cellulose (PASC) conversion assay (Examples 20, 21); type: biochemical; details: 72 hours, 50° C.
Protocol: A 1.0% PASC slurry was prepared as described in Example 17. Ten ml of the 1.0% PASC slurry, 10 ml of H2O, and […] of dioxy compound were thoroughly mixed by shaking,
Five hundred μl aliquots of the 0.50% phosphoric acid swollen cellulose/0.05% dioxy compound slurry were pipetted into wells of a 2.0 ml 96-deepwell plate (Axygen, Union City, Calif., USA) using a 1000 μl micropipette with a wide aperture tip (end of tip cut off about 2 mm from the base). One hundred μl of 10 mM MnSO4-500 mM sodium acetate pH 5 were then added to each well. Two hundred μl of deionized water were added to each well. Enzyme mixtures were prepared and then added simultaneously to all wells in a volume of 200 μl, for a total of 1 ml in each reaction. […] All experiments reported were performed in triplicate.
Primary analysis of the hydrolysis reactions was performed using an AGILENT® 1100 HPLC with CHEMSTATION® software equipped with an AMINEX™ HPX-87H column. After approximately 4 days, the deep-well plate was removed from the incubator and chilled overnight to 4° C. The plate was then mixed well by inversion and briefly centrifuged 52×g in a SORVALL® RT7 centrifuge for 10 seconds. Samples were then mixed by pipetting, and 200 μl from each well were transferred to a MULTISCREEN® HV centrifuge filter plate assembly. The centrifuge filter plate assembly was centrifuged at 2000 rpm in a SORVALL® RT7 centrifuge for 20 minutes. […] Sugars were detected using a refractive index detector with quantification by integration compared to purified sugar standards.
All HPLC data processing was performed using MICROSOFT EXCEL™ software. […] In this assay only glucose was measured since beta-glucosidase was at high levels in all samples but the controls. Percent conversion was calculated using Equation 1. Triplicate data points were averaged and standard deviation was calculated.
The PASC assay was performed as described in Example 20.
Data were collected and analyzed, as described in Example 20, after 72 hours of incubation at 50° C.

[4] = target: T1, T. aurantiacus GH61A polypeptide; assay: Microcrystalline cellulose conversion assay I (Examples 8, 9) with T. aurantiacus GH61A polypeptide; type: biochemical; details: T. aurantiacus GH61A polypeptide (10 mg per g cellulose) + endoglucanase II + beta-glucosidase (5 mg/g each), no dioxy compound, 96 hours
Protocol: A 5% microcrystalline cellulose slurry was prepared by addition of 2.5 g of AVICEL®PH101 (Sigma-Aldrich, St. Louis, Mo., USA) to a graduated 50 ml screw-cap conical tube followed by 15 ml of 1 M sodium acetate pH 5 and 1 ml of 100 mM MnSO4 and approximately 20 ml of deionizer water. Each conical tube was then mixed thoroughly by shaking/vortexing, and adjusted to 50 ml total with deionized water and mixed again. Contents of the tube were then quickly transferred to a 100 ml beaker and stirred rapidly with a magnetic stirrer. […]
After approximately 4 days, the deep-well plate was removed from the incubator and chilled overnight to 4° C. […] Sugars were detected using a refractive index detector (Agilent Technologies, Inc., Santa Clara, Calif., USA) with quantification by integration compared to purified sugar standards.
as §1, §2

| Molecule | conversion of phosphoric acid swollen cellulose ([1]; pH 4) [%] | conversion of phosphoric acid swollen cellulose ([1]; pH 5) [%] | conversion of phosphoric acid swollen cellulose ([1]; pH 6) [%] | conversion of phosphoric acid swollen cellulose ([1]; pH 7.5) [%] | conversion of microcrystalline cellulose ([2]; 50° C.) [%] | conversion of microcrystalline cellulose ([2]; 60° C.) [%] | conversion of phosphoric acid swollen cellulose ([3]; T. aurantiacus GH61A polypeptide (20 mg/g) + A. oryzae CEL3A beta-glucosidase (20 mg/g), no dioxy compound) [%] | conversion of PASC ([3]; T. aurantiacus GH61A polypeptide (20 mg/g) alone) [%] | conversion of microcrystalline cellulose ([4]; 50° C.) [%] | conversion of microcrystalline cellulose ([4]; 60° C.) [%] |
| --- | --- | --- | --- | --- | --- | --- | --- | --- | --- | --- |
| O=C(O)c1cc(O)c(O)c(O)c1 [gallic acid] | 13.6±0.2 | 15.9±0.6 | 12.7±0.4 | 3.9±1.0 | 9.3±0.1 | 7.9±0.1 | – | – | – | – |
| T. aurantiacus GH61A polypeptide: GH61A polypeptide having cellulolytic enhancing activity (SEQ ID NO: 14), recombinantly produced in Aspergillus oryzae JaL250 (protein, listed as Thermoascus aurantiacus) MSFSKIIATAGVLASASLVAGHGFVQNIVIDGKYYGGYLVNQYPYMSNPPEVIAWSTTATDLGFVDGTGYQTPDIICHRGAKPGALTAPVSPGGTVELQWTPWPDSHHGPVINYLAPCNGDCSTVDKTQLEFFKIAESGLINDDNPPGIWASDNLIAANNSWTVTIPTTIAPGNYVLRHEIIALHSAQNQDGAQNYPQCINLQVTGGGSDNPAGTLGTALYHDTDPGILINIYQKLSSYIIPGPPLYTG | – | – | – | – | – | – | 2.3±0.6 | 1.5±1.1 | 2.2±0.1 | 2.6±0.1 |
